Laboratory results reported in US10246457B2, “Indazole and azaindazole Btk inhibitors” (MERCK SHARP & DOHME CORP., priority 2015, dated 2019).

Columns and labels:
[1] = molecular target: 25P Btk enzyme (un-activated full-length Btk) (Homo sapiens (Human), UniProt Q06187); test: 25P Btk Enzyme Activity Assay (LANCE TR-FRET); format: biochemical; settings: un-activated Btk (25P), 25 μM ATP, 60 minute compound and enzyme incubation; read-out: Btk binding IC50 (nM) with 25 P
Protocol: Preparation of Un-Activated Btk Enzyme (25P Btk)
Un-activated full-length Btk recombinant protein was purified from baculovirus-transfected Sf21 cells. […] This protein represents the un-activated state of the Btk enzyme.
25P Btk Enzyme Activity Assay
Btk enzymatic activity was determined with the LANCE (Lanthanide Chelate Excite) TR-FRET (lime-resolved fluorescence resonance energy transfer) assay. […] To each well of a black non-binding surface Corning 384-well microplate (Corning Catalog #3820), 5 nL of compound (2000 fold dilution in final assay volume of 10 μL) was dispensed, followed by the addition of 7.5 μL of 1× kinase buffer (50 mM Hepes 7.5, 10 mM MgCl2, 0.01% Brij-35, 1 mM EGTA, 0.05% BSA and 1 mM DTT) containing 26.67 pg/μL (266.7 pM) of 25P Btk enzyme (recombinant protein from baculovirus-transfected Sf9 cells: full-length Btk; MW=79378 Da). Following a 60 minute compound and enzyme incubation, each reaction was initiated by the addition of 2.5 μL 1× kinase buffer containing 8 μM biotinylated “A5” peptide (Biotin-EQEDEPEGDYFEWLE-NH2), and 100 μM ATP. The final reaction in each well of 10 consists of 200 pM 25P Btk, 2 μM biotin-A5-peptide, and 25 μM ATP. Phosphorylation reactions were allowed to proceed for 120 minutes. Reactions were immediately quenched by the addition of 20 uL of 1× quench buffer (15 mM EDTA, 25 mM Hepes 7.3, and 0.1% Triton X-100) containing detection reagents (0.626 nM of LANCE-Eu-W1024-anti-phosphoTyrosine antibody, PerkinElmer and 86.8 nM of Streptavidin-conjugated Dylight 650, Dyomics/ThermoFisher Scientific). After 60 minutes incubation with detection reagents, reaction plates were read on a PerkinElmer EnVision plate reader using standard TR-FRET protocol. Briefly, excitation of donor molecules (Eu-chelate:anti-phospho-antibody) with a laser light source at 337 nm produces energy that can be transferred to Dylight-650 acceptor molecules if this donor:acceptor pair is within close proximity. Fluorescence intensity at both 665 nm (acceptor) and 615 nm (donor) are measured and a TR-FRET ratio calculated for each well (acceptor intensity/donor intensity). IC50 values were determined by 4 parameter robust fit of TR-FRET ratio values vs. (Log10) compound concentrations.

[2] = molecular target: 100P Btk enzyme (activated full-length Btk) (Homo sapiens (Human), UniProt Q06187); test: 100P Btk Enzyme Activity Assay (LANCE TR-FRET); format: biochemical; settings: activated Btk (100P), 25 μM ATP, 60 minute compound and enzyme incubation; top concentration 1000 nM; read-out: Btk binding IC50 (nM) with 100 P
Protocol: Activated full-length Btk recombinant enzyme was expressed and purified in the same manner as the […] enzyme, except an auto-phosphorylation step was added to the purification scheme. […] This protein represents the activated state of the Btk enzyme. […] Btk Enzyme Activity Assay Btk enzymatic activity was determined with the LANCE (Lanthanide Chelate Excite) TR-FRET (lime-resolved fluorescence resonance energy transfer) assay. […] MW=79378 Da). […] Phosphorylation reactions were allowed to proceed for 45 minutes. […] After 60 minutes incubation with detection reagents, reaction plates were read on a PerkinElmer EnVision plate reader using standard TR-FRET protocol. Briefly, excitation of donor molecules (Eu-chelate:anti-phospho-antibody) with a laser light source at 337 nm produces energy that can be transferred to Dylight-650 acceptor molecules if this donor:acceptor pair is within close proximity. Fluorescence intensity at both 665 nm (acceptor) and 615 nm (donor) are measured and a TR-FRET ratio calculated for each well (acceptor intensity/donor intensity). […] (Log10) compound concentrations.

Chain of 100P Btk enzyme (activated full-length Btk) (Q06187 whole entry): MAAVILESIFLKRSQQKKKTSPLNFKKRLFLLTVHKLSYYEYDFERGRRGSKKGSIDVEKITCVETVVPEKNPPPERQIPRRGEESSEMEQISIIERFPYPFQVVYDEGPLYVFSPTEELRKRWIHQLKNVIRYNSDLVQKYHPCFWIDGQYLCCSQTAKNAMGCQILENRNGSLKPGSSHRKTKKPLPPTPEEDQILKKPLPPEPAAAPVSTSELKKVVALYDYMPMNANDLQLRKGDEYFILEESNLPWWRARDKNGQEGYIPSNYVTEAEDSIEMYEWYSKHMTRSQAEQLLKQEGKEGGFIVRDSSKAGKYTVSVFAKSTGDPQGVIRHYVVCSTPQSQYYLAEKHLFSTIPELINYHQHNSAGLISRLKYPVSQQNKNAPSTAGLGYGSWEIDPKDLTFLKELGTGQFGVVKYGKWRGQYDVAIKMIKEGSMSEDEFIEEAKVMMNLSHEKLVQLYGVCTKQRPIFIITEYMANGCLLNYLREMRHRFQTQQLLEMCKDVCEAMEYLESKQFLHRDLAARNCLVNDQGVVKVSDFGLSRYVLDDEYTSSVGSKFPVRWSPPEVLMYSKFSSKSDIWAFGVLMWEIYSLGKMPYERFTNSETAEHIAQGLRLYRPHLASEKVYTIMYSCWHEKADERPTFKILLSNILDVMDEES
Chain of 25P Btk enzyme (un-activated full-length Btk) (Q06187 whole entry): as above

IC50 [1] [nM] | IC50 [2] [nM] | SMILES
0.14 | 112 | CC(C)(C)c1cc(F)c2c(=O)n(-c3cccc(-c4cc(C(=O)O)c5[nH]nc(N)c5c4)c3CO)ncc2c1 [Example 1, 3-amino-5-[3-(6-tert-butyl-8-fluoro-1-oxophthalazin-2(1H)-yl)-2-(hydroxymethyl)phenyl]-1H-indazole-7-carboxylic acid]
10.9 | 341 | Cc1cc2[nH]nc(N)c2cc1-c1cccc(-n2ncc3cc(C(C)(C)C)cc(F)c3c2=O)c1CO [Example 2, 2-[3-(3-amino-6-methyl-1H-indazol-5-yl)-2-(hydroxymethyl)phenyl]-6-tert-butyl-8-fluorophthalazin-1(2H)-one]
0.16 | 16 | CC(C)(C)c1cc(F)c2c(=O)n(-c3cccc(-c4cc(C(N)=O)c5[nH]nc(N)c5c4)c3CO)ncc2c1 [Example 3, 3-amino-5-[3-(6-tert-butyl-8-fluoro-1-oxophthalazin-2(1H)-yl)-2-(hydroxymethyl)phenyl]-1H-indazole-7-carboxamide]
38.6 | – | CC(C)(C)c1cc(F)c2c(=O)n(-c3cccc(-c4cc(C(F)(F)F)c5[nH]nc(N)c5c4)c3CO)ncc2c1 [Example 4, 2-{3-[3-amino-7-(trifluoromethyl)-1H-indazol-5-yl]-2-(hydroxymethyl)phenyl}-6-tert-butyl-8-fluorophthalazin-1(2H)-one]
47.3 | – | Cn1nc(N)c2cc(-c3cccc(-n4ncc5cc(C(C)(C)C)cc(F)c5c4=O)c3CO)cc(C(N)=O)c21 [Example 5, 3-amino-5-[3-(6-tert-butyl-8-fluoro-1-oxophthalazin-2 (1H)-yl)-2-(hydroxymethyl)phenyl]-1-methyl-1H-indazole-7-carboxamide]
0.15 | 3.8 | CC(C)n1cc(-c2cc(-c3cccc(-n4ncc5cc(C(C)(C)C)cc(F)c5c4=O)c3CO)cc3c(N)n[nH]c23)cn1 [Example 6, 2-[3-{3-amino-7-[1-(1-methylethyl)-1H-pyrazol-4-yl]-1H-indazol-5-yl}-2-(hydroxymethyl)phenyl]-6-tert-butyl-8-fluorophthalazin-1(2H)-one]
64.5 | – | Cc1c(NC(=O)c2ccc(C(C)(C)C)cc2F)cccc1-c1cc(C(N)=O)c2[nH]nc(N)c2c1 [Example 7, 3-amino-5-(3-{[(4-tert-butyl-2-fluorophenyl)carbonyl]amino}-2-methylphenyl)-1H-indazole-7-carboxamide]
268 | – | Cc1c(NC(=O)c2ccc(C(C)(C)C(F)(F)F)cc2F)cccc1-c1cc(C(N)=O)c2[nH]nc(N)c2c1 [Example 8, 3-amino-5-[3-({[2-fluoro-4-(2,2,2-trifluoro-1,1-dimethylethyl)phenyl]carbonyl}amino)-2-methylphenyl]-1H-indazole-7-carboxamide]
0.073 | 5.3 | Cn1cc(-c2cc(-c3cccc(-n4ncc5cc(C(C)(C)C)cc(F)c5c4=O)c3CO)cc3c(N)n[nH]c23)cn1 [Example 9, 2-{3-[3-amino-7-(1-methyl-1H-pyrazol-4-yl)-1H-indazol-5-yl]-2-(hydroxymethyl)phenyl}-6-tert-butyl-8-fluorophthalazin-1(2H)-one]
0.8 | 299 | CC(C)(C)c1cc(F)c2c(=O)n(-c3cccc(-c4cc(-c5cccnc5)c5[nH]nc(N)c5c4)c3CO)ncc2c1 [Example 10, 2-[3-(3-amino-7-pyridin-3-yl-1H-indazol-5-yl)-2-(hydroxymethyl)phenyl]-6-tert-butyl-8-fluorophthalazin-1(2H)-one]
0.16 | 29.3 | CNC(=O)c1cc(-c2cccc(-n3ncc4cc(C(C)(C)C)cc(F)c4c3=O)c2CO)cc2c(N)n[nH]c12 [Example 11, 3-amino-5-[3-(6-tert-butyl-8-fluoro-1-oxophthalazin-2(1H)-yl)-2-(hydroxymethyl)phenyl]-N-methyl-1H-indazole-7-carboxamide]
29.6 | – | CC(C)(C)c1cc(F)c2c(=O)n(-c3cccc(-c4ccc5c(c4)c(N)nn5Cc4ccncc4)c3CO)ncc2c1 [Example 12, 2-{3-[3-amino-1-(pyridin-4-ylmethyl)-1H-indazol-5-yl]-2-(hydroxymethyl)phenyl}-6-tert-butyl-8-fluorophthalazin-1(2H)-one]
16.7 | – | Cc1c(NC(=O)c2ccc(C(C)(C)C)cc2)cccc1-c1cc(-c2cnn(C)c2)c2[nH]nc(N)c2c1 [Example 13, N-{3-[3-amino-7-(1-methyl-1H-pyrazol-4-yl)-1H-indazol-5-yl]-2-methylphenyl}-4-tert-butylbenzamide]
173 | – | CC(C)(C)c1cc(F)c2c(=O)n(-c3cccc(-c4cc(C(=O)N5CCOCC5)c5[nH]nc(N)c5c4)c3CO)ncc2c1 [Example 14, 2-{3-[3-amino-7-(morpholin-4-ylcarbonyl)-1H-indazol-5-yl]-2-(hydroxymethyl)phenyl}-6-tert-butyl-8-fluorophthalazin-1(2H)-one]
0.49 | 145 | CC(C)(C)c1cc(F)c2c(c1)CCN(c1cccc(-c3cc(C(N)=O)c4[nH]nc(N)c4c3)c1CO)C2=O [Example 16, 3-amino-5-[3-(6-tert-butyl-8-fluoro-1-oxo-3,4-dihydroisoquinolin-2(1H)-yl)-2-(hydroxymethyl)phenyl]-1H-indazole-7-carboxamide]
0.16 | 13 | CC(C)n1ccc(-c2cc(-c3cccc(-n4ncc5cc(C(C)(C)C)cc(F)c5c4=O)c3CO)cc3c(N)n[nH]c23)n1 [Example 17, 2-[3-{3-amino-7-[1(1-methylethyl)-1H-pyrazol-3-yl]-1H-indazol-5-yl}-2-(hydroxymethyl)phenyl]-6-tert-butyl-8-fluorophthalazin-1(2H)-one]
0.13 | 11.6 | Cn1cc(-c2cc(-c3cccc(NC(=O)c4cc5c(s4)CCCC5)c3CO)cc3c(N)n[nH]c23)cn1 [Example 18, N-{3-[3-amino-7-(1-methyl-1H-pyrazol-4-yl)-1H-indazol-5-yl]-2-(hydroxymethyl)phenyl}-4,5,6,7-tetrahydro-1-benzothiophene-2-carboxamide]
0.48 | 429 | CC(C)(C)c1cc(F)c2c(=O)n(-c3cccc(-c4cc(-c5ccccc5)c5[nH]nc(N)c5c4)c3CO)ncc2c1 [Example 19, 2-[3-(3-amino-7-phenyl-1H-indazol-5-yl)-2-(hydroxymethyl)phenyl]-6-tert-butyl-8-fluorophthalazin-1(2H)-one]
7.7 | – | CC(C)(C)c1cc(F)c2c(=O)n(-c3cccc(-c4ccc5[nH]nc(N)c5n4)c3CO)ncc2c1 [Example 20, 2-[3-(3-amino-1H-pyrazolo[4,3-b]pyridin-5-yl)-2-(hydroxymethyl)phenyl]-6-tert-butyl-8-fluorophthalazin-1(2H)-one]
9.5 | 801 | CC(C)(C)c1cc(F)c2c(=O)n(-c3cccc(-c4cc5c(N)n[nH]c5cn4)c3CO)ncc2c1 [Example 21, 2-[3-(3-amino-1H-pyrazolo[3,4-c]pyridin-5-yl)-2-(hydroxymethyl)phenyl]-6-tert-butyl-8-fluorophthalazin-1(2H)-one]
0.11 | 17.4 | CC(C)(C)c1cc(F)c2c(=O)n(-c3cccc(-c4cc(-c5ccccn5)c5[nH]nc(N)c5c4)c3CO)ncc2c1 [Example 22, 2-(3-(3-amino-7-(pyridin-2-yl)-1H-indazol-5-yl)-2-(hydroxymethyl)phenyl)-6-(tert-butyl)-8-fluorophthalazin-1(2H)-one]
